Measured values from US11040947B2, “Substituted quinazolines as matrix metalloproteinase-9 hemopexin domain inhibitors” (The Research Foundation for The State University of New York, priority 2017, dated 2021).

Experiments:
[1] = test system: proMMP9-mediated migration of COS-1 cells; assay: two-dimensional collagen dot migration assay, COS-1 cells overexpressing proMMP-9; type: cell-based; details: for inhibition at 50 µM: Chlorocebus aethiops
Description: This assay was initially used to test the efficacy of analogs at a single concentration, 50 μM.
Cells were mixed with type I collagen solution with or without compound, dotted onto a 96-well plate, and allowed to migrate for 18 hours. They were then fixed, stained and scored for extent of migration.

[2] = target: T1, APMA-activated recombinant proMMP-9 (Homo sapiens, UniProt P14780); assay: MMP-9 catalytic activity with fluorogenic peptide; type: biochemical; details: 10 μM fluorogenic peptide, monitored over 2 hours
T1 construct: made in house
Description: Recombinant proMMP-9 protein was purified and incubated overnight in a 37° C. water bath in TNC buffer+1 mM APMA to artificially activate the protein.

[3] = test system: Src^Tyr418, FAK^Tyr576/577, PAX^Tyr118 phosphorylation; assay: phosphorylation of Src and downstream targets in HT1080 cells; type: cell-based, Human; details: 50 μM
Description: (§1) HT1080 cells transiently co-transfected with tagged MMP-9 cDNAs were prepared as described above.

[4] = test system: proMMP-2-mediated migration of COS-1 cells; assay: two-dimensional dot migration assay, COS-1 cells stably expressing proMMP-2; type: cell-based
Description: (§2) To test whether compound 3c is specific for inhibiting only proMMP9-mediated migration, a two-dimensional dot migration assay was performed using COS-1 cells engineered to stably express vector control pQCXIP, proMMP-2, proMMP-9, or proMMP-14 cDNA vectors. An immunoblot was performed to confirm protein expression and proper localization of each MMP (MMP-2/-9 are secreted while MMP-14 is membrane bound).

[5] = test system: MMP-9 at the cell surface of HT1080 cells; assay: MMP-9 cell surface localization, immunofluorescence in HT1080 cells; type: cell-based, Human
Description: HT1080 cells were fixed in 4% paraformaldehyde then subsequently incubated with anti-MMP-9 in addition to anti-α4 and/or β1 integrin antibodies to monitor relative levels of localization of these proteins at the cell surface. The cells were counterstained with DAPI nuclear dye.

[6] = test system: HT1080 cells stably expressing GFP; assay: chorioallantoic membrane (CAM) assay, invasion; type: in vivo, chicken embryo; details: 100 μM stock solution (final estimated 0.5 μM), vs DMSO or 1f
Description: HT1080 cells stably expressing GFP were mixed with a type I collagen solution (3 mg/mL) and seeded atop the CAM to ensure the cells localized to a specific area. […] The invasion of cancer cells through the epithelium and basement membrane of the upper CAM into connecting tissue was examined by hematoxylin and eosin staining in addition to fluorescence microscopy for GFP^+ cells.

HT1080 cells [7] = assay: chorioallantoic membrane (CAM) assay, angiogenesis; type: in vivo, chicken embryo; details: 100 μM stock solution (final estimated 0.5 μM), 4-day incubation, vs DMSO and 1f
Description: A CAM assay was carried out to evaluate angiogenic and invasive potential of HT1080 cells after treatment with 3c. […] After a 4-day incubation, neovascularization was imaged and quantified.

HT1080 cells [8] = assay: cell adhesion to collagen or fibronectin coated plate; type: cell-based, Human; details: 37° C. 30 min
Description: A 96-well plate was coated with a thin layer of either collagen or fibronectin (5 μg/ml in PBS) substrate before use. HT1080 cells were then seeded onto wells and incubated at 37° C. for 30 min in the presence of various inhibitors. Wells were washed and cells were fixed in 4% paraformaldehyde and stained with DAPI. Images of each 96-well were microscopically captured and counted for the number of cells still adherent to the coated surface using automated computer software.

[9] = target: T2, MMP-9 interaction with α4/β1 integrin (Homo sapiens, UniProt P14780); assay: co-immunoprecipitation of endogenous integrin with MMP-9 in HT1080 cells; type: cell-based; details: 50 μM
T2 construct: expressed in transfected cells; host or cells: HT1080 cells (MMP-9 transfected; integrin endogenous)
Description: as §1

[10] = test system: proMMP-14-mediated migration of COS-1 cells; assay: two-dimensional dot migration assay, COS-1 cells stably expressing proMMP-14; type: cell-based
Description: as §2

[11] = test system: FAK and PAX adhesion junctions in HT1080 cells; assay: focal adhesion complexes, immunofluorescence in HT1080 cells; type: cell-based, Human
[12] = test system: EGFR^Tyr1068, AKT^Ser473, Erk1/2^Thr202/Tyr204 phosphorylation; assay: phosphorylation of EGFR and downstream targets in HT1080 cells; type: cell-based, Human; details: 50 μM overnight
[13] = test system: proMMP9-mediated migration of COS-1 cells; assay: two-dimensional dot migration assay, COS-1 cells stably expressing proMMP-9; type: cell-based
Description: as §2

[14] = target: T3, MMP-9 association with CD44 and EGFR (Homo sapiens, UniProt P14780); assay: co-immunoprecipitation of endogenous CD44 and EGFR with MMP-9 in HT1080 cells; type: cell-based; details: 50 μM overnight
T3 construct: expressed in transfected cells; host or cells: HT1080 human fibrosarcoma cells (MMP-9 transfected; CD44 and EGFR endogenous)

proMMP-9 = target: T4, proMMP-9 (Homo sapiens, UniProt P14780); assay: proMMP-9 tryptophan fluorescence blue shift binding assay; details: binding to proMMP-9, tryptophan fluorescence
T4 construct: Purified recombinant MMP-9 (50 nmol/L) or MMP-9/MMP-2PEX (50 nmol/L) was diluted in buffer
Description: A blue shift in proMMP-9 tryptophan fluorescence was monitored to determine the binding affinity of all compounds. Binding of a test compound to MMP-9 was assayed by observing the change of tryptophan emission upon binding. Purified recombinant MMP-9 (50 nmol/L) or MMP-9/MMP-2PEX (50 nmol/L) was diluted in buffer (50 mmol/L Tris-HCl, 60 mmol/L KCl, and 0.05% Tween 20, pH 7.4) in the presence or absence of the test compound. As a control for protein stability and loss, an analogous buffer solution was added to the protein. The protein sample was excited at 280 nm and emission scans were collected from 290 to 400 nm, using slit widths of 0.3 nm on a QM 4/200SE spectrofluorimeter with double excitation and emission monochromators. Three emission scans were collected and averaged at each concentration. The Kd was determined using the Prism software package (GraphPad V5) to fit the data to Equation (Δ). λmax=(λmax^∞×[2])/(Kd+[2]) (A) in which λmax is the wavelength at which maximal fluorescence of the protein was observed.

[15] = test system: COS-1 cells stably expressing vector control or proMMP-9; assay: acute cytotoxicity in COS-1 cells; type: cell-based; details: 100 nM staurosporine (positive control), 24 hours
Description: Compound 3c was evaluated for acute cytotoxicity. COS-1 cells stably expressing either vector control or proMMP-9 cDNA were treated with 50 μM 3c for 24 hours. As negative and positive controls, cells were treated with DMSO alone or 100 nM staurosporine (STS), an apoptosis inducer, respectively. […] A non-statistically significant 8% decrease in cell growth occurred after treatment with 50 μM of compound 3c. These experiments were repeated in endogenous MMP-9 expressing HT1080 fibrosarcoma cells, which were analyzed for chronic toxicity (cells were re-treated every three days for a total of nine days).

T4 sequence (P14780 20-707 limits assumed): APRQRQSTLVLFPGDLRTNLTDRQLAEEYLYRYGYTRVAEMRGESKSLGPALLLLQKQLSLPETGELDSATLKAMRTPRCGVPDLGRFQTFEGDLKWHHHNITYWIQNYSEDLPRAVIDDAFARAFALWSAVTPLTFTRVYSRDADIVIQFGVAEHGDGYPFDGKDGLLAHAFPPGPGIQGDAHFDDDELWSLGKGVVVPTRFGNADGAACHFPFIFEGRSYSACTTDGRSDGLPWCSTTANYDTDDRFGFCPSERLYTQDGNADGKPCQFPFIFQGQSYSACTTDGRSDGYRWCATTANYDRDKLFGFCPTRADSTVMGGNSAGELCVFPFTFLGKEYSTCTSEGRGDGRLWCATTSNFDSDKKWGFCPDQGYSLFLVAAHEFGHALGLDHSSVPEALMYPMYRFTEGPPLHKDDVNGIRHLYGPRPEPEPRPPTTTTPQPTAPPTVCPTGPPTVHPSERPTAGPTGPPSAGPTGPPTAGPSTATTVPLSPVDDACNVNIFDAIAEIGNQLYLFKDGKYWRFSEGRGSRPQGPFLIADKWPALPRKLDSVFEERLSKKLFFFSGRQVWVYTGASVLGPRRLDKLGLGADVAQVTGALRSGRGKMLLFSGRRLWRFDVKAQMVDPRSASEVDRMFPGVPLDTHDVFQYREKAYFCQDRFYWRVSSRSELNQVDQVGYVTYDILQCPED
T1 sequence (P14780 107-707 limits assumed): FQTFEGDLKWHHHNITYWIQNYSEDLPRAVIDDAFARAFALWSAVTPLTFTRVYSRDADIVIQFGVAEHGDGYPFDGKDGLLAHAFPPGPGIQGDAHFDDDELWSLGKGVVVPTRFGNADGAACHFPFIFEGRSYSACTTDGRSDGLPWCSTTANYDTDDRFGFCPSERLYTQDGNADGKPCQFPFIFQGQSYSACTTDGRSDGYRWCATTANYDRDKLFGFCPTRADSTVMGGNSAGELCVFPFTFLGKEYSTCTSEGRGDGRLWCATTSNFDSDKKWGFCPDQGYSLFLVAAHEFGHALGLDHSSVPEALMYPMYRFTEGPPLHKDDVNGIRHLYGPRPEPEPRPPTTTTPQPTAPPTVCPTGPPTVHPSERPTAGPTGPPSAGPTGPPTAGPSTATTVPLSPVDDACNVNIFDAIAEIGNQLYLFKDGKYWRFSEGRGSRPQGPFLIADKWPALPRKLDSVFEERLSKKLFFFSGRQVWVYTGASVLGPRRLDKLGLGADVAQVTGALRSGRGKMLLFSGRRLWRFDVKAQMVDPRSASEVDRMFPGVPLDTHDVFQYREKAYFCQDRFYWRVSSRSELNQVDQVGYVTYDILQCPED
T3 sequence (P14780 94-707): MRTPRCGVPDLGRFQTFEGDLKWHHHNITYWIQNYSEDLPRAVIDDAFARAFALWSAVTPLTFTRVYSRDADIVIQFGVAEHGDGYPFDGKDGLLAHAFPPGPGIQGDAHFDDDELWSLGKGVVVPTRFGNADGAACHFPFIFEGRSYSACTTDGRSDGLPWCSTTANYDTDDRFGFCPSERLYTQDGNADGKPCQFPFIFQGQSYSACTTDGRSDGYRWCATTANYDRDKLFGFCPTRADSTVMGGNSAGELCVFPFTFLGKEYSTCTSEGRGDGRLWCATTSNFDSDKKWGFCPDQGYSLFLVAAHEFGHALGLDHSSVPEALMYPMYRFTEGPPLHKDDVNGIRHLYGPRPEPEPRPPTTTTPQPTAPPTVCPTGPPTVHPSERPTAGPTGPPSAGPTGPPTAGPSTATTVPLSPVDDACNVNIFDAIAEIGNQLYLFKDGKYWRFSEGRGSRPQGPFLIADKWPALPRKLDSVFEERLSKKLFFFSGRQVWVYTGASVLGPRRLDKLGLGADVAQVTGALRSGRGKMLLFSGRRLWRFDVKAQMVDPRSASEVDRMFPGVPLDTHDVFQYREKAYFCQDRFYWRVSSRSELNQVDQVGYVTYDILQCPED
T2 sequence (P14780 94-707): as above

SMILES | inhibition at 50 µM ([1]; 50 μM, 18 hours) [%] | Kd (proMMP-9) [nM] | melting point | further results
CCCc1cc(=O)nc(SCC(=O)Nc2ccc(OC(F)F)cc2)[nH]1 [Compound 1a, N-(4-Difluoromethoxyphenyl)-2-(4-oxo-6-propyl-1,4-dihydropyrimidin-2-ylthio)acetamide] |  |  |  | inhibitor effectiveness at concentrations above 50 μM ([1]; above 50 μM): did not increase inhibitor effectiveness; inhibition of MMP-9 catalytic activity [2]: No inhibition of the catalytic activity was observed; Src^Tyr418 phosphorylation and phosphorylation of FAK^Tyr576/577 and PAX^Tyr118 [3]: reduced Src^Tyr418 phosphorylation; inhibition of proMMP-2-mediated migration [4]: only inhibited proMMP9-mediated migration; localization of MMP-9 on the cell surface [5]: loss of MMP-9 from the cell surface; invasion of CAM tissue [6]: reduced invasion of CAM tissue; angiogenic potential of HT1080 cells (neovascularization) (HT1080 cells [7]): significantly reduced the angiogenic potential of HT1080 cells; cellular adhesion (HT1080 cells [8]): inhibited cellular adhesion; endogenous α4β1 integrin co-immunoprecipitation [9]: reduced endogenous α4β3 integrin co-immunoprecipitation; inhibition of proMMP-14-mediated migration [10]: only inhibited proMMP9-mediated migration; formation of FAK and PAX adhesion junctions ([11]; 50 μM overnight): A decrease in the formation of FAK and PAX adhesion junctions; phosphorylation of EGFR^Tyr1068 and downstream targets AKT^Ser473 and Erk1/2^Thr202/Tyr204 [12]: reduced phosphorylation; inhibition of proMMP-9-mediated migration [13]: only inhibited proMMP9-mediated migration; endogenous CD44 and EGFR co-immunoprecipitation [14]: reduced endogenous CD44 and EGFR co-immunoprecipitation
CCCc1cc(=O)nc(SCC(=O)Nc2ccccc2)[nH]1 [Compound 1b, 2-(4-Oxo-6-propyl-1,4-dihydropyrimidin-2-ylthio)-N-phenylacetamide] | 12 ± 3 | 4500 ± 600 | 170 °C (dec.) | 
CCCc1cc(=O)nc(SCC(=O)Nc2ccc(F)cc2)[nH]1 [Compound 1c, N-(4-Fluorophenyl)-2-(4-oxo-6-propyl-1,4-dihydropyrimidin-2-ylthio)acetamide] | 29 ± 4 | 3800 ± 600 | 191 to 194 °C | 
CCCc1cc(=O)nc(SCC(=O)Nc2nc3ccccc3[nH]2)[nH]1 [Compound 1d, N-(1H-benzo[d]imidazol-2-yl)-2-(4-oxo-6-propyl-1,4-dihydropyrimidin-2-ylthio)acetamide] | 61 ± 2 | 1200 ± 200 | 217 °C (dec.) | 
CCCc1cc(=O)nc(SCC(=O)N(C)c2ccccc2)[nH]1 [Compound 1f, 2-(4-Oxo-6-propyl-1,4-dihydropyrimidin-2-ylthio)-N(methyl)-phenylacetamide, reference compound] |  |  |  | % Inhibition of proMMP9-Mediated Migration at 50 μM ([1]; 50 μM, 18 hours): 2 ± 6%; localization of MMP-9 on the cell surface [5]: did not disrupt the localization of MMP-9 on the cell surface; cellular adhesion (HT1080 cells [8]): no affect on cell adhesion
CCCc1cc(=O)nc(SCCCC(=O)Nc2ccc(OC(F)F)cc2)[nH]1 [Compound 2a, N-(4-Difluoromethoxyphenyl)-4-(4-oxo-6-propyl-1,4-dihydropyrimidin-2-ylthio)butanamide] | 63 ± 4 | 1000 ± 200 |  | 
CCCc1cc(=O)nc(SCCCC(=O)Nc2ccc(F)cc2)[nH]1 [Compound 2c, N-(4-Fluorophenyl)-4-(4-oxo-6-propyl-1,4-dihydropyrimidin-2-ylthio)butanamide] | 68 ± 3 | 910 ± 100 | 180 to 182 °C | 
O=C(CCCSc1nc2c(c(=O)[nH]1)CCCC2)Nc1ccc(OC(F)F)cc1 [Compound 3a, N-(4-Difluoromethoxyphenyl)-4-(4-oxo-3,4,5,6,7,8-hexahydroquinazolin-2-ylthio)butanamide] | 74 ± 2 | 600 ± 100 | 197 to 198 °C | 
O=C(CCCSc1nc2c(c(=O)[nH]1)CCCC2)Nc1ccccc1 [Compound 3b, 4-(4-Oxo-3,4,5,6,7,8-hexahydroquinazolin-2-ylthio)-N-phenylbutanamide] | 76 ± 1 | 500 ± 100 |  | 
O=C(CCCSc1nc2c(c(=O)[nH]1)CCCC2)Nc1nc2ccccc2[nH]1 [Compound 3d, N-(1H-Benzo[d]imidazol-2-yl)-4-(4-oxo-3,4,5,6,7,8-hexahydroquinazolin-2-ylthio)butanamide] | 77 ± 2 | 500 ± 200 | > 230 °C | 
O=C(CCCSc1nc2ccccc2c(=O)[nH]1)Nc1ccc(OC(F)F)cc1 [Compound 4a, N-(4-(Difluoromethoxy)phenyl)-4-(4-oxo-3,4-dihydroquinazolin-2-ylthio)butanamide] | 78 ± 3 | 500 ± 100 | 210 to 211 °C | 
O=C(CCCSc1nc2ccccc2c(=O)[nH]1)Nc1ccccc1 [Compound 4b, 4-(4-Oxo-3,4-dihydroquinazolin-2-ylthio)-N-phenylbutanamide] | 64 ± 4 | 800 ± 100 |  | 
O=C(CCCSc1nc2ccccc2c(=O)[nH]1)Nc1ccc(F)cc1 [Compound 4c, N-(4-Fluorophenyl)-4-((4-oxo-3,4-dihydroquinazolin-2-yl)thio)butanamide] | 73 ± 2 | 640 ± 60 | 216 to 217 °C | 
O=C(CCCSc1nc2ccccc2c(=O)[nH]1)Nc1nc2ccccc2[nH]1 [Compound 4d, N-(1H-Benzo[d]imidazol-2-yl)-4-(4-oxo-3,4-dihydroquinazolin-2-ylthio)butanamide] | 81 ± 3 | 300 ± 100 | > 230 °C | 
CCCCCCNC(=O)CCCSc1nc2ccccc2c(=O)[nH]1 [Compound 4e, N-Hexyl-4-(4-oxo-3,4-dihydroquinazolin-2-ylthio)butanamide] | 56 ± 1 | 900 ± 300 |  | 
CN[C@@H]1C[C@H]2O[C@@](C)([C@@H]1OC)n1c3ccccc3c3c4c(c5c6ccccc6n2c5c31)C(=O)NC4 [STS, staurosporine, reference compound] |  |  |  | cell death [15]: Significant cell death
CNC(=O)[C@@H](NC(=O)[C@H](CC(C)C)[C@H](O)C(=O)NO)C(C)(C)C [marimastat, reference compound] |  |  |  | inhibition of MMP-9 catalytic activity [2]: no substrate cleavage was observed; cellular adhesion (HT1080 cells [8]): no observable effect on cell attachment; formation of focal adhesion contact sites ([11]; 80 nM, p-FAK and p-PAX): did not prevent the formation of focal adhesion contact sites
